The results in this text go back to US20240294548A1, “TRICYCLIC SULTAMS AND SULFAMIDES AS ANTITUMOR AGENTS” (PELOTON THERAPEUTICS INC., priority 2021, published 2024).

Usually pEC50 stands for the negative decadic logarithm of the EC50, by convention in mol/L. For orientation: pIC50 means −log10 of the IC50, conventionally taken in molar units.

SMILES strings stand for the structures. pEC50, pIC50: −log10 of the molar value. Read-outs that look alike come from different tables or passages of the source.

The target of experiment [1] is T1, DCAF15 RBM39 ternary complex (Homo sapiens, UniProt Q14498+Q66K64, DEL276-383).
T1 construct: Amino acids 150 to 331 of RBM39 were cloned into pGEX4T3; GST (from the pGEX4T3 vector, own knowledge) followed by a TEV cleavage site (N); made in house; host or cells: Sf9 baculovirus (DDB1ΔB/DCAF15); E. coli (RBM39 R1R2)
T1 sequence (Q66K64 with tags, fused parts or gaps DEL276-383): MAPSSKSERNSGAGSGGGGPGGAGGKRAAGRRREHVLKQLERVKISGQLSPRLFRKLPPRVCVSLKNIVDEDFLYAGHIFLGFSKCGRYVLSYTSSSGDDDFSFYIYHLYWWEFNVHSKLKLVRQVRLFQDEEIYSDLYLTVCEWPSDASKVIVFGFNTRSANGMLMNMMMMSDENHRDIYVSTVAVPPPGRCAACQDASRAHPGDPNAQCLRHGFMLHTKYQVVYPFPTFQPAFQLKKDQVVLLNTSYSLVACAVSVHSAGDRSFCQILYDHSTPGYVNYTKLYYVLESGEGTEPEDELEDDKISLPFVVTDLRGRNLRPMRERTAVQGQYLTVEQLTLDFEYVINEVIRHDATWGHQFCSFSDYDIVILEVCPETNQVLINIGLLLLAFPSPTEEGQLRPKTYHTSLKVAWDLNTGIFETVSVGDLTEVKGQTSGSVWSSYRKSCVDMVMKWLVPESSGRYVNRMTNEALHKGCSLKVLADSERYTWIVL
T1 sequence (Q14498 150-331, stated change not applied): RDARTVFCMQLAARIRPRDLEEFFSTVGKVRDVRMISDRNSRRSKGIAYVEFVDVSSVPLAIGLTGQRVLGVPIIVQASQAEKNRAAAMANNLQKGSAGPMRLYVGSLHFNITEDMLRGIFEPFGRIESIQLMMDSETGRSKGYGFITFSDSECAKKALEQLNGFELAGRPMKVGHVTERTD
The experiment can be described thus: DCAF15 RBM39 complex formation assay (FRET). It is filed as biochemical. The source says:
(§1) Proteins used for the assays were as follows: Human DDA1 (UniProt:Q9BW61), DDB1 (UniPro: Q16531), and DCAF15 (UniProt: Q66K64) coding sequences were cloned into pFastBac1 vectors and were co-expressed in Sf9 cells using Bac-to-Bac baculovirus expression system (Thermo Fisher Scientific). The expression construct for DCAF15 includes a N-terminal His6-tag to facilitate the purification.
DCAF15 RBM39 Complex Formation Assay
LANCE Eu-W1024 Anti-6×His and SureLight Allophycocyanin-anti-FLAG antibodies were purchased from Perkin Elmer. Human DDB1DB and His-tagged DCAF15 were co-expressed in baculovirus/sf9 system. […] The His-tagged DCAF15 contains six histidine residues directly preceding the DCAF15 sequence without any linker. An RBM39 fragment containing RRM1 and RRM2 was expressed in E. coli.
A compound of the present disclosure in DMSO (2 μL) was transferred to a 384-well assay plate. Compound was added in 14 points, 3-fold serial dilution (1 μM to 0.6 pico molar) in DMSO. […] FRET assay buffer (25 mM HEPES, pH 7.5, 100 mM NaCl, […], 0.5 mM TCEP, 0.005% Tween-20, 0.2 nM Eu-W1024 Anti-6×His, 50 nM SureLight Allophycocyanin-anti-FLAG, 20 nM DDB1DB/DCAF15, 50 nM RBM39 R1R2) was added and the resulting solution was incubated overnight at 4° C. […] Low signal controls containing no compound and high signal controls containing 10 mM indisulam were measured for each plate.
EC50 values were calculated using Dotmatics template equation for 4-parameter fit.
Results are expressed as % formation using the following equation: […]

The target of experiment [2] is T2, DCAF15 (DDA1-DDB1ΔB-DCAF15Δpro) (Homo sapiens, UniProt Q66K64, DEL276-383).
T2 construct: made in house; host or cells: Sf9 (Bac-to-Bac baculovirus)
The experiment in a line: DCAF15 displacement assay (displacement FRET, probe PT7795). It is filed as binding.
Description: as §1
DCAF15 Displacement Assay (Displacement FRET KD)
Synthesis of the probe PT7795 is described in the article.
Binding of PT7795 to DDA1-DDB1AB-DCAF15Δpro was measured by the FRET signal between europium-labeled anti-His antibody (AD0205, Perkin Elmer) that is associated with His-tagged DCAF15 and ALX647 moiety in PT7795. […] After equilibrating for 2-3 hours at 4° C., the plate was removed from the incubator, briefly spun, then read on a Spark 10 (Tecan) at the excitation/emission wavelength of 340 nm/615 nm and 340 nm/665 nm.
Binding of compounds in this disclosure to DCAF15 was measured in a competition by the displacement of PT7795. The concentration of PT7795 was kept at 300 nM while the concentration of a compound was varied from 0.01 to 100 μM. The incubation time was increased to 18 hours for enhanced signal to noise level.
F=Fmin+(Fmax−Fmin)/(1+10^(logIC50−log[Compound])^n) (Equation 2)
The Kds can then be calculated from IC50s using Equation 3 (Cheng-Prusoff equation).

The mark [3] stands for this setting: FRET ratio, 20 nM DDB1DB/DCAF15, 50 nM RBM39 R1R2, overnight at 4° C., read-out: DCAF15 RBM39 ternary complex EC50.
[4] abbreviates: displacement of PT7795 (300 nM), compound 0.01 to 100 μM, 18 hours incubation, read-out: DCAF15 displacement IC50.

As for `O=c1[nH]ccc(CN2Cc3cc(Cl)c4c(Cl)c[nH]c4c3NS2(=O)=O)c1Cl` [Compound 97, 3-chloro-4-((6,7-dichloro-2,2-dioxido-4,9-dihydro-[1,2,6]thiadiazino [4,3-g]indol-3(1H)-yl)methyl)pyridin-2(1H)-one], the pEC50 in experiment [1] (setting [3]) was 8.77.

Regarding `O=C(CN1Cc2cc(Cl)c3c(Cl)c[nH]c3c2NS1(=O)=O)N1CCOCC1` [Compound 92, 2-(6,7-dichloro-2,2-dioxido-4,9-dihydro-[1,2,6]thiadiazino[4,3-g]indol-3(1H)-yl)-1-morpholinoethan-1-one], the pIC50 in experiment [2] (setting [4]) was 6.02. Further, the negative logarithm of the EC50 (pEC50) in experiment [1] (setting [3]) is 9.15.

Turning to `O=S1(=O)Nc2c(cc(Cl)c3c(Cl)c[nH]c23)CN1CC1CC(O)C1` (centres unmarked) [Compound 88, 6,7-dichloro-3-((3-hydroxycyclobutyl)methyl)-1,3,4,9-tetrahydro-[1,2,6]thiadiazino[4,3-g]indole 2,2-dioxide], the pIC50 in experiment [2] (setting [4]) is 6.64. Besides, in experiment [1] (setting [3]), the pEC50 was 8.80.

Take `O=S1(=O)Nc2c(cc(Cl)c3c(Cl)c[nH]c23)CN1CC1CCCNC1` (centres unmarked) [Compound 90, 6,7-dichloro-3-(piperidin-3-ylmethyl)-1,3,4,9-tetrahydro-[1,2,6] thiadiazino[4,3-g]indole 2,2-dioxide]: the pIC50 in experiment [2] is 6.56. In experiment [1], this compound had a pEC50 of 9.00.

Regarding `COCCN1Cc2cc(F)c3c(Cl)c[nH]c3c2NS1(=O)=O` [Compound 79, 7-chloro-6-fluoro-3-(2-methoxyethyl)-1,3,4,9-tetrahydro-[1,2,6] thiadiazino[4,3-g]indole 2,2-dioxide], the negative-log IC50 (pIC50) in experiment [2] (setting [4]) was 4.71. The pEC50 in experiment [1] (setting [3]) was 8.05.

Turning to `Cn1ccc(CN2Cc3cc(Cl)c4c(Cl)c[nH]c4c3NS2(=O)=O)cc1=O` [Compound 61, 4-((6,7-dichloro-2,2-dioxido-4,9-dihydro-[1,2,6]thiadiazino[4,3-g]indol-3(1H)-yl)methyl)-1-methylpyridin-2(1H)-one], the pIC50 in experiment [2] (setting [4]) was 5.91. Besides, the pEC50 in experiment [1] (setting [3]) was 6.91.

`CS(=O)(=O)CCCN1Cc2cc(Cl)c3c(Cl)c[nH]c3c2NS1(=O)=O` [Compound 77, 6,7-dichloro-3-(3-(methylsulfonyl)propyl)-1,3,4,9-tetrahydro-[1,2,6] thiadiazino[4,3-g]indole 2,2-dioxide]: the pIC50 in experiment [2] (setting [4]) is 6.17. The pEC50 in experiment [1] (setting [3]) is 9.10.

Regarding `C=CCN1Cc2cc(Cl)c3c(Cl)c[nH]c3c2NS1(=O)=O` [Compound 93, 3-allyl-6,7-dichloro-1,3,4,9-tetrahydro-[1,2,6] thiadiazino[4,3-g]indole 2,2-dioxide], the pIC50 in experiment [2] (setting [4]) was 6.11. Moreover, the pEC50 in experiment [1] (setting [3]) is 8.80.

Take `O=S1(=O)Nc2c(cc(Cl)c3c(Cl)c[nH]c23)CN1CC1CCCOC1` (centres unmarked) [Compound 95, 6,7-dichloro-3-((tetrahydro-2H-pyran-3-yl)methyl)-1,3,4,9-tetrahydro-[1,2,6] thiadiazino[4,3-g]indole 2,2-dioxide]: the pIC50 in experiment [2] (setting [4]) is 7.02. For the same compound, the negative logarithm of the EC50 (pEC50) in experiment [1] (setting [3]) was 8.92.

Regarding `O=S1(=O)Nc2c(cc(Cl)c3c(Cl)c[nH]c23)CN1CC1CCCCO1` (centres unmarked) [Compound 96, 6,7-dichloro-3-((tetrahydro-2H-pyran-2-yl)methyl)-1,3,4,9-tetrahydro-[1,2,6] thiadiazino[4,3-g]indole 2,2-dioxide], the pIC50 in experiment [2] (setting [4]) was 6.67. Further, the pEC50 in experiment [1] (setting [3]) is 8.92.

Take `Cn1c(CN2Cc3cc(Cl)c4c(Cl)c[nH]c4c3NS2(=O)=O)cccc1=O` [Compound 62, 6-((6,7-dichloro-2,2-dioxido-4,9-dihydro-[1,2,6]thiadiazino[4,3-g]indol-3(1H)-yl)methyl)-1-methylpyridin-2(1H)-one]: the pIC50 in experiment [2] (setting [4]) was 5.97. Moreover, the pEC50 in experiment [1] (setting [3]) is 6.81.

As for `O=S1(=O)Nc2c(ccc3c(Cl)c[nH]c23)CN1c1cccnc1` [Compound 82, 7-chloro-3-(pyridin-3-yl)-1,3,4,9-tetrahydro-[1,2,6]thiadiazino[4,3-g]indole 2,2-dioxide], the pIC50 in experiment [2] (setting [4]) was 5.48. The pEC50 in experiment [1] (setting [3]) is 8.96.

For the compound `COCCN1Cc2ccc3c(C#N)c[nH]c3c2NS1(=O)=O` [Compound 100, 3-(2-methoxyethyl)-1,3,4,9-tetrahydro-[1,2,6] thiadiazino[4,3-g]indole-7-carbonitrile 2,2-dioxide], the negative-log IC50 (pIC50) in experiment [2] (setting [4]) is at most 4.00. In experiment [1] (setting [3]), the pEC50 is 6.77.

As to `COCCN1Cc2ccc3c(Cl)c[nH]c3c2NS1(=O)=O` [Compound 81, 7-chloro-3-(2-methoxyethyl)-1,3,4,9-tetrahydro-[1,2,6] thiadiazino[4,3-g]indole 2,2-dioxide], the pIC50 in experiment [2] (setting [4]) is 4.49. Moreover, the pEC50 in experiment [1] (setting [3]) is 7.75.

For `COCCN1Cc2cc(F)c3c(C#N)c[nH]c3c2NS1(=O)=O` [Compound 99, 6-fluoro-3-(2-methoxyethyl)-1,3,4,9-tetrahydro-[1,2,6] thiadiazino[4,3-g]indole-7-carbonitrile 2,2-dioxide], the pIC50 in experiment [2] (setting [4]) is 4.51. Further, the pEC50 in experiment [1] (setting [3]) was 6.67.

As for `CC(=O)N1CCCC(CN2Cc3cc(Cl)c4c(Cl)c[nH]c4c3NS2(=O)=O)C1` (centres unmarked) [Compound 91, 1-(3-((6,7-dichloro-2,2-dioxido-4,9-dihydro-[1,2,6]thiadiazino[4,3-g]indol-3(1H)-yl)methyl)piperidin-1-yl) ethan-1-one], the pIC50 in experiment [2] (setting [4]) was 7.29. In experiment [1] (setting [3]), the pEC50 was 9.40.

`O=S1(=O)Nc2c(cc(Cl)c3c(Cl)c[nH]c23)CN1CC1CCCO1` (centres unmarked) [Compound 89, 6,7-dichloro-3-((tetrahydrofuran-2-yl)methyl)-1,3,4,9-tetrahydro-[1,2,6] thiadiazino[4,3-g]indole 2,2-dioxide]: the negative-log IC50 (pIC50) in experiment [2] (setting [4]) is 6.24. Also, the negative-log EC50 (pEC50) in experiment [1] (setting [3]) is 9.10.

As to `O=c1cc(CN2Cc3cc(Cl)c4c(Cl)c[nH]c4c3NS2(=O)=O)c(Cl)c[nH]1` [Compound 98, 5-chloro-4-((6,7-dichloro-2,2-dioxido-4,9-dihydro-[1,2,6]thiadiazino [4,3-g]indol-3(1H)-yl)methyl)pyridin-2(1H)-one], the pIC50 in experiment [2] (setting [4]) is 6.74. Also, the pEC50 in experiment [1] (setting [3]) was 8.64.

With `O=S1(=O)Nc2c(cc(Cl)c3c(Cl)c[nH]c23)CN1CCC1COC1` [Compound 94, 6,7-dichloro-3-(2-(oxetan-3-yl)ethyl)-1,3,4,9-tetrahydro-[1,2,6] thiadiazino[4,3-g]indole 2,2-dioxide], the pIC50 in experiment [2] (setting [4]) is 6.44. In addition, the pEC50 in experiment [1] (setting [3]) is 8.54.

`O=S1(=O)Nc2c(ccc3c(Cl)c[nH]c23)CN1C1CCCOC1` (centres unmarked) [Compound 80, 7-chloro-3-(tetrahydro-2H-pyran-3-yl)-1,3,4,9-tetrahydro-[1,2,6]thiadiazino[4,3-g]indole 2,2-dioxide]: the pIC50 in experiment [2] (setting [4]) was 5.74. In experiment [1] (setting [3]), the pEC50 is 7.74.

As to `Nc1ccc(CN2Cc3cc(Cl)c4c(Cl)c[nH]c4c3NS2(=O)=O)cc1` [Compound 78, 3-(4-aminobenzyl)-6,7-dichloro-1,3,4,9-tetrahydro-[1,2,6]thiadiazino[4,3-g]indole 2,2-dioxide], in experiment [2] (setting [4]), the pIC50 is 5.93. The pEC50 in experiment [1] (setting [3]) is 9.15.
